# Experimental data: PMC9120017, “Inhibition mechanism of the chloride channel TMEM16A by the pore blocker 1PBC” (Nature Communications, 2022)
# Like-named read-outs stand apart in the source and are kept apart here.
# Molecular target: T1, mouse TMEM16A mutant R535A (Mus musculus, UniProt Q8BHY3, R535A)
# T1 construct: expressed in transfected cells; host or cells: HEK293T
# T1 sequence (Q8BHY3 1-960 R535A): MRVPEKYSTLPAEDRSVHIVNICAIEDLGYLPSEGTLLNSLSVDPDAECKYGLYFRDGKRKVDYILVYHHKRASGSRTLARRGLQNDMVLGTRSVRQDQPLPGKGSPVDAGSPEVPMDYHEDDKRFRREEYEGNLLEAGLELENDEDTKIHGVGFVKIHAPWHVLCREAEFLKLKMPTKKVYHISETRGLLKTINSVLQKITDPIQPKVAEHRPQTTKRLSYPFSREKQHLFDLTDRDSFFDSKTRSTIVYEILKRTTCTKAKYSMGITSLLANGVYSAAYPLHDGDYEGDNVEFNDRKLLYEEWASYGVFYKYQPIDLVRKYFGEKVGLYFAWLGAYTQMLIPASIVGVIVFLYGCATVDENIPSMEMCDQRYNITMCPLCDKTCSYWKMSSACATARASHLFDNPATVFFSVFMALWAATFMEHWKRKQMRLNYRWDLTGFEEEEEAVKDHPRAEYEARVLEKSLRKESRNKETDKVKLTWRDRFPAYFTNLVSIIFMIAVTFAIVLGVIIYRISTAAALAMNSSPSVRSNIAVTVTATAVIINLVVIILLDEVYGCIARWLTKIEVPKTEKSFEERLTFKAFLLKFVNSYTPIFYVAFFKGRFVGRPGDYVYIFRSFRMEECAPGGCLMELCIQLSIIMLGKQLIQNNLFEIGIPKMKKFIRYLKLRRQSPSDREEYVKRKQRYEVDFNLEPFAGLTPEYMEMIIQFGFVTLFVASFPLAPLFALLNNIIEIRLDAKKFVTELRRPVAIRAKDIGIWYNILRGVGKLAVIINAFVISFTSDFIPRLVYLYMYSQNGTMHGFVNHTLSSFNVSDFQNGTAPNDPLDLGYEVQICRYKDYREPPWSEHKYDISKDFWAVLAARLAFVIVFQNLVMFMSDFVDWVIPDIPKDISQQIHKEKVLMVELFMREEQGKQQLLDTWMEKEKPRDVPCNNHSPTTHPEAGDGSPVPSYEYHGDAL
# Test: Inside-out patch recording of 1PBC block, mutant R535A
# Assay type: cell-based
# Conditions: for remaining activity at 100 µM: 100 µM 1PBC
# Protocol: HEK293T cells (ATCC CRL-1573) were maintained in Dulbecco’s modified Eagle’s medium (DMEM; Sigma-Aldrich) supplemented with 10 U ml^−1 penicillin, 0.1 mg ml^−1 streptomycin (Sigma-Aldrich), 2 mM L-glutamine (Sigma-Aldrich), and 10% FBS (Sigma-Aldrich) in a humidified atmosphere containing 5% CO2 at 37 °C. HEK293S GnTI^− cells (ATCC CRL-3022) were maintained in HyClone HyCell TransFx-H medium (GE Healthcare) supplemented with 10 U ml^−1 penicillin, 0.1 mg ml^−1 streptomycin, 4 mM L-glutamine, 0.15% poloxamer 188 (Sigma-Aldrich), and 1% FBS in an atmosphere containing 5% CO2 at 185 rpm at 37 °C. The ac splice variant of mouse TMEM16A (UniProt ID: Q8BHY3), mouse TMEM16B (UniProt ID: Q8CFW1), or mouse TMEM16F (UniProt ID: Q6P9J9) bearing a 3C cleavage site, a Venus YFP, a Myc tag, and a Streptavidin-binding peptide (SBP) downstream of the open reading frame in a modified pcDNA3.1 vector (Invitrogen) were used as described previously[21],[31]. Mutations were introduced using a modified QuikChange method[58] and were verified by sequencing.
# HEK293T cells were transfected with 3–4 μg DNA per 6 cm Petri dish using the calcium phosphate co-precipitation method and were used within 24–96 h after transfection. Recordings were performed on inside-out patches excised from HEK293T cells expressing the construct of interest. Patch pipettes were pulled from borosilicate glass capillaries (O.D. 1.5 mm, I.D. 0.86 mm, Sutter Instrument) and were fire-polished with a microforge (Narishige) before use. Pipette resistance was typically 3–8 MΩ when filled with the recording solutions detailed below. Seal resistance was typically 4 GΩ or higher. Voltage-clamp recordings were made using Axopatch 200B, Digidata 1550, and Clampex 10.7 (Molecular Devices). Analog signals were filtered with the in-built 4-pole Bessel filter at 10 kHz and were digitized at 20 kHz. Solution exchange was achieved using a gravity-fed system through a theta glass pipette mounted on an ultra-fast piezo-driven stepper (Siskiyou). […] All recordings were performed at 20 °C.
# A symmetrical ionic condition was used throughout. Stock solution with Ca^2+-EGTA contained 150 mM NaCl, 5.99 mM Ca(OH)2, 5 mM EGTA, and 10 mM HEPES at pH 7.40. Stock solution with EGTA contained 150 mM NaCl, 5 mM EGTA, and 10 mM HEPES at pH 7.40. Free Ca^2+ concentrations were adjusted by mixing the stock solutions at the required ratios calculated using the WEBMAXC program (http://web.stanford.edu/~cpatton/webmaxcS.htm). Patch pipettes were filled with the stock solution with Ca^2+-EGTA, which has a free Ca^2+ concentration of 1 mM. 1PBC (ChemBridge) stock was reconstituted in anhydrous DMSO (Sigma-Aldrich) at 100 mM and stored at −20 °C. Working solutions with 1PBC were prepared by serial dilution. Unless otherwise stated, experiments were performed at a saturating Ca^2+ concentration as shown in Supplementary Table 1 and the primary data were corrected for current rundown as described previously[21],[25].
# Concentration-response relations, obtained from the ratio of the I-V plots before and after the application of the blocker, were fitted to the Hill equation,1 I/Imax=1/1+IC50/[blocker]^h where I/Imax is the normalized current responses, IC50 defines the concentration at which inhibition is at its half-maximum, and h is the Hill coefficient.
smiles,measurement,setting,value
N#Cc1c(C(F)(F)F)cc(O)n2c1nc1ccccc12 [1PBC],IC50,"0 mV, 2 µM Ca2+",11.9 µM
same,remaining activity at 3 µM,"3 µM 1PBC, +80 mV, saturating Ca2+ (2 µM), read-out: I/Imax",67.6%
same,remaining activity at 3 µM,"3 µM 1PBC, -80 mV, saturating Ca2+ (2 µM), read-out: I/Imax",91.3%
same,remaining activity at 10 µM,"10 µM 1PBC, +80 mV, saturating Ca2+ (2 µM), read-out: I/Imax",36.9%
same,remaining activity at 10 µM,"10 µM 1PBC, -80 mV, saturating Ca2+ (2 µM), read-out: I/Imax",70.8%
same,remaining activity at 30 µM,"30 µM 1PBC, +80 mV, saturating Ca2+ (2 µM), read-out: I/Imax",16.6%
same,remaining activity at 30 µM,"30 µM 1PBC, -80 mV, saturating Ca2+ (2 µM), read-out: I/Imax",46.3%
same,remaining activity at 100 µM,"+80 mV, saturating Ca2+ (2 µM), read-out: I/Imax",5.26%
same,remaining activity at 100 µM,"-80 mV, saturating Ca2+ (2 µM), read-out: I/Imax",21.3%
same,remaining activity at 3 µM,"1PBC 3, 0 mV, read-out: fraction of unblocked current",80.7%
same,remaining activity at 3 µM,"1PBC 3, 20 mV, read-out: fraction of unblocked current",76.3%
same,remaining activity at 3 µM,"1PBC 3, 40 mV, read-out: fraction of unblocked current",72.5%
same,remaining activity at 3 µM,"1PBC 3, 60 mV, read-out: fraction of unblocked current",69.3%
same,remaining activity at 3 µM,"1PBC 3, 80 mV, read-out: fraction of unblocked current",67.6%
same,remaining activity at 3 µM,"1PBC 3, 100 mV, read-out: fraction of unblocked current",65.8%
same,remaining activity at 3 µM,"1PBC 3, 120 mV, read-out: fraction of unblocked current",66%
same,remaining activity at 3 µM,"1PBC 3, 140 mV, read-out: fraction of unblocked current",66.6%
same,remaining activity at 3 µM,"1PBC 3, -20 mV, read-out: fraction of unblocked current",85.2%
same,remaining activity at 3 µM,"1PBC 3, -40 mV, read-out: fraction of unblocked current",87.7%
same,remaining activity at 3 µM,"1PBC 3, -60 mV, read-out: fraction of unblocked current",89.5%
same,remaining activity at 3 µM,"1PBC 3, -80 mV, read-out: fraction of unblocked current",91.3%
same,remaining activity at 3 µM,"1PBC 3, -100 mV, read-out: fraction of unblocked current",91.1%
same,remaining activity at 3 µM,"1PBC 3, -120 mV, read-out: fraction of unblocked current",92.2%
same,remaining activity at 3 µM,"1PBC 3, -140 mV, read-out: fraction of unblocked current",91.6%
same,remaining activity at 10 µM,"1PBC 10, 0 mV, read-out: fraction of unblocked current",53.9%
same,remaining activity at 10 µM,"1PBC 10, 20 mV, read-out: fraction of unblocked current",48.3%
same,remaining activity at 10 µM,"1PBC 10, 40 mV, read-out: fraction of unblocked current",43.7%
same,remaining activity at 10 µM,"1PBC 10, 60 mV, read-out: fraction of unblocked current",39.8%
same,remaining activity at 10 µM,"1PBC 10, 80 mV, read-out: fraction of unblocked current",36.9%
same,remaining activity at 10 µM,"1PBC 10, 100 mV, read-out: fraction of unblocked current",34.6%
same,remaining activity at 10 µM,"1PBC 10, 120 mV, read-out: fraction of unblocked current",34.7%
same,remaining activity at 10 µM,"1PBC 10, 140 mV, read-out: fraction of unblocked current",35.9%
same,remaining activity at 10 µM,"1PBC 10, -20 mV, read-out: fraction of unblocked current",59.6%
same,remaining activity at 10 µM,"1PBC 10, -40 mV, read-out: fraction of unblocked current",63.3%
same,remaining activity at 10 µM,"1PBC 10, -60 mV, read-out: fraction of unblocked current",67%
same,remaining activity at 10 µM,"1PBC 10, -80 mV, read-out: fraction of unblocked current",70.8%
same,remaining activity at 10 µM,"1PBC 10, -100 mV, read-out: fraction of unblocked current",73%
same,remaining activity at 10 µM,"1PBC 10, -120 mV, read-out: fraction of unblocked current",74.7%
same,remaining activity at 10 µM,"1PBC 10, -140 mV, read-out: fraction of unblocked current",75.4%
same,remaining activity at 30 µM,"1PBC 30, 0 mV, read-out: fraction of unblocked current",28.6%
same,remaining activity at 30 µM,"1PBC 30, 20 mV, read-out: fraction of unblocked current",24.4%
same,remaining activity at 30 µM,"1PBC 30, 40 mV, read-out: fraction of unblocked current",20.9%
same,remaining activity at 30 µM,"1PBC 30, 60 mV, read-out: fraction of unblocked current",18.1%
same,remaining activity at 30 µM,"1PBC 30, 80 mV, read-out: fraction of unblocked current",16.6%
same,remaining activity at 30 µM,"1PBC 30, 100 mV, read-out: fraction of unblocked current",15.4%
same,remaining activity at 30 µM,"1PBC 30, 120 mV, read-out: fraction of unblocked current",15.7%
same,remaining activity at 30 µM,"1PBC 30, 140 mV, read-out: fraction of unblocked current",16.3%
same,remaining activity at 30 µM,"1PBC 30, -20 mV, read-out: fraction of unblocked current",32.7%
same,remaining activity at 30 µM,"1PBC 30, -40 mV, read-out: fraction of unblocked current",36.9%
